Test results reported in patent US11932594B1, “8-((2-hydroxy-5-methylphenyl)diazenyl)naphthalene-1,3-disulfonic acid as an antioxidant compound” (KING FAISAL UNIVERSITY, priority 2023, dated 2024).

Assay: DPPH (2,2-diphenyl-1-picrylhydrazyl) in vitro antioxidant test
Format: biochemical
Conditions: 517 nm; for Inhibition (radical scavenging inhibition): 0.2 mL DPPH (0.75 mM) in ethanol, 30 min incubation in the dark
Method: The antioxidant properties of the 8-((2-hydroxy-5-methylphenyl)diazenyl)naphthalene-1,3-disulfonic acid were studied by adding 0.2 mL DPPH (0.75 mM)) to compound 8-((2-hydroxy-5-methylphenyl)diazenyl)naphthalene-1,3-disulfonic acid (III) (304) in ethanol. After 30 min of incubation in the dark, the absorbance was read against a blank at 517 nm. Ascorbic acid (vitamin C) was used as standard antioxidants (positive control). A blank sample was prepared by 0.2 ml of DPPH in 3 ml ethanol. A negative control sample was run using ethanol instead of the sample. The radical scavenging inhibition was calculated using the following equation: […]

For `Cc1ccc(O)c(/N=N/c2cccc3cc(S(=O)(=O)O)cc(S(=O)(=O)O)c23)c1` [Product III, 8-((2-hydroxy-5-methylphenyl)diazenyl)naphthalene-1,3-disulfonic acid], the “Inhibition (radical scavenging inhibition)” value was 54% and the “antioxidant potential compared to vitamin C” value (DPPH in vitro test, vitamin C as positive control) was “high potential as an antioxidant compared to vitamin C”.
For `O=C1O[C@H]([C@@H](O)CO)C(O)=C1O` [vit c, Ascorbic acid, reference compound], the “Inhibition (radical scavenging inhibition)” value was 74%.
